In this assay the target is human ACC2 (Homo sapiens (Human), UniProt O00763). In words: ACC2 assay (spectrophotometric 384 well assay, NADH-linked kinetic method). The assay is classed as biochemical. As to conditions: hACC2 construct lacking 128 N-terminal amino acids; coupled lactate dehydrogenase/pyruvate kinase reaction, 340 nm, 25° C. The method, boiled down:
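Baculovirus/insect-cell human ACC2, anion-exchange purified; ADP formation coupled to pyruvate kinase/lactate dehydrogenase, NADH loss followed at 340 nm, 25° C, 15 min. Final 200 μM NADH and acetyl-CoA, 500 uM ATP; vehicle and no-acetyl-CoA wells set 100% and 0%.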

Here are results for 25 compounds from US8962641B2, “Pyrimidine-substituted pyrrolidine derivatives, pharmaceutical compositions and uses thereof” (Boehringer Ingelheim International GmbH, priority 2013, dated 2015).

human ACC2, sequence (O00763 129-2458): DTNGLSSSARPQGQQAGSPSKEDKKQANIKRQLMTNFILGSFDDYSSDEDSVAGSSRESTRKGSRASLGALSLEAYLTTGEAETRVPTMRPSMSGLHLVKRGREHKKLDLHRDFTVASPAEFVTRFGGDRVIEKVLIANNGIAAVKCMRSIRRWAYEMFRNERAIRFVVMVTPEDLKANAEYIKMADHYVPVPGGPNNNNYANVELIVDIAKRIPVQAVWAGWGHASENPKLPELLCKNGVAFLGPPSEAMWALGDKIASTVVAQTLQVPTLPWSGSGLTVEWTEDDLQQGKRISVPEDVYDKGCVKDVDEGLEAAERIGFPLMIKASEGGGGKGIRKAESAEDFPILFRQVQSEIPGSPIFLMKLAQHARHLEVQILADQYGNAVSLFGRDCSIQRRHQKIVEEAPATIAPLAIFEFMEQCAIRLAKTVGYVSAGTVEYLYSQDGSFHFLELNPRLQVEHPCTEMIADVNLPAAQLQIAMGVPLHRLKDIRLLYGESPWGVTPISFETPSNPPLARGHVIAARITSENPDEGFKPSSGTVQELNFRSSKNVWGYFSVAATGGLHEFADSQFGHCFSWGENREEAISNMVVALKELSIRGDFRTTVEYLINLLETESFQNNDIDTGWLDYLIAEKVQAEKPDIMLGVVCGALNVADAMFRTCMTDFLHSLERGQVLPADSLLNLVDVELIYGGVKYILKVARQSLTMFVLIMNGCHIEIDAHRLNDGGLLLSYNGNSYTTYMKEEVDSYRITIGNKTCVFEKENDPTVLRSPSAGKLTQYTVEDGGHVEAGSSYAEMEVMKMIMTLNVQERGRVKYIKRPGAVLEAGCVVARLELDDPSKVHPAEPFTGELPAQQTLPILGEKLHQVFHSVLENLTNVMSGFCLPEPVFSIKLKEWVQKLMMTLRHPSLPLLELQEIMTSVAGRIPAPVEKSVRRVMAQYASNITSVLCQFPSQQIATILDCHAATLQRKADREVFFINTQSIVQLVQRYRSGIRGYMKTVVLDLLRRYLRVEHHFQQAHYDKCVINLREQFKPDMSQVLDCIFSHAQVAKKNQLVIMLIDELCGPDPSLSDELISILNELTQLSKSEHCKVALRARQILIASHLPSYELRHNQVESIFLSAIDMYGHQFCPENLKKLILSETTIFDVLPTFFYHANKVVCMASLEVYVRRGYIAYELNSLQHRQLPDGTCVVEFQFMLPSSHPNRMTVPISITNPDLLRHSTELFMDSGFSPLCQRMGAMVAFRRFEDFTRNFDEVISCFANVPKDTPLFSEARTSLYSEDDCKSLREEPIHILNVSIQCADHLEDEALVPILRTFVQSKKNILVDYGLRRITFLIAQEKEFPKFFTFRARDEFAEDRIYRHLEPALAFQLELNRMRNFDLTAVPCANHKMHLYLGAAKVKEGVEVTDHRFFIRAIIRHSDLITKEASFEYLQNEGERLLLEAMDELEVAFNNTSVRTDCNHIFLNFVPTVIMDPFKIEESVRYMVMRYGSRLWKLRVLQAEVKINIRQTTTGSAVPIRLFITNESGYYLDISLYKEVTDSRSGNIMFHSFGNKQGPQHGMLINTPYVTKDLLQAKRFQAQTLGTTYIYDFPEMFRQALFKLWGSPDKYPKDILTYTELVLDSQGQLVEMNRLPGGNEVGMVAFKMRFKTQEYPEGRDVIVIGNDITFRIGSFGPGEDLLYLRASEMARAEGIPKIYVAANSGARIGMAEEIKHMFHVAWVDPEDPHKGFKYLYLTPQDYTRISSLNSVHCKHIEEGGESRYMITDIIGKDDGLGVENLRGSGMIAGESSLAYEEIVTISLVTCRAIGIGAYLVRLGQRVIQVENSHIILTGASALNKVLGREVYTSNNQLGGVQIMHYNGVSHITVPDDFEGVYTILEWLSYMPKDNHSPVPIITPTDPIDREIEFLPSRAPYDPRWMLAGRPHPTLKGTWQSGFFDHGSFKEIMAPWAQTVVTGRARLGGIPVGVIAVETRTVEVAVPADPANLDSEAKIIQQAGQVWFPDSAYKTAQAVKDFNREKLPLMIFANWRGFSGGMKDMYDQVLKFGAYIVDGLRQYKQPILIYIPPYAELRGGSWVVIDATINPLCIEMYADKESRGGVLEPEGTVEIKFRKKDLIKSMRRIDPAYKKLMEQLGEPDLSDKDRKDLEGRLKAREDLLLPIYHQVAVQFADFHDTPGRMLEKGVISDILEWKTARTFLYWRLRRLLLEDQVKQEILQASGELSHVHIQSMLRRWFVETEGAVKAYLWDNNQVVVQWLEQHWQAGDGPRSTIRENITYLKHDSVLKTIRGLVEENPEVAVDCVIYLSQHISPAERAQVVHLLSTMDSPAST

With `CCN(C)c1ncnc(N2CC[C@@H](Oc3ccc([C@H](C)NC(C)=O)cc3)C2)c1Cl` [Example 8.102], the IC50 (commonly the point on the concentration scale where inhibition reaches its midpoint) was found to be 88 nM. For `CCN(CC)c1ncc(C#N)c(N2CC[C@@H](Oc3ccc([C@H](C)NC(C)=O)cc3)C2)n1` [Example 8.35] the value was 824 nM; for `C[C@H](NC(=O)C1CC1)c1ccc(O[C@@H]2CCN(c3nc(N4CCC5(CC5)C4)ncc3F)C2)cc1` [Example 10.4], 120 nM. Compound `CCOc1ncnc(N2CC[C@@H](Oc3ccc([C@H](C)NC(C)=O)cc3)C2)c1Cl` [Example 7.22] yielded an IC50 of 140 nM. With `CC(=O)N[C@@H](C)c1ccc(O[C@@H]2CCN(c3nc(N4CCOC(C)C4)ncc3F)C2)cc1` (stereo partly shown) [Example 8.274] the figure was 130 nM; with `CC(=O)N[C@@H](C)c1ccc(O[C@@H]2CCN(c3ncc(C(C)(C)C)cn3)C2)cc1` [Example 6.24], 819 nM.

For the compound `CC(=O)N[C@@H](C)c1ccc(O[C@@H]2CCN(c3ncnc(NCC4CC4)c3Cl)C2)cc1` [Example 8.309], the IC50 turned out to be 42 nM. Against the preceding compound, the IC50 is about 20-fold lower.

For `CC(=O)N[C@@H](C)c1ccc(O[C@@H]2CCN(c3nc(N4CCOC(C(F)(F)F)C4)ncc3Cl)C2)cc1` (stereo partly shown) [Example 8.174], half-maximal inhibition (IC50) was put at 170 nM. With `CCN(C)c1nccc(N2CCC(Oc3ccc([C@H](C)NC(=O)N(C)C)cc3)C2)n1` (stereo partly shown) [Example 3.9] the figure was 117 nM; with `CC(=O)N[C@@H](C)c1ccc(O[C@@H]2CCN(c3ccnc(N4C[C@@H]5CC[C@@H](C4)O5)n3)C2)cc1` [Example 8.277], 867 nM. As for `CCC(=O)Nc1nc(C)c(C(=O)N[C@@H](C)c2ccc(O[C@@H]3CCN(c4ncc(OCC5CC5(F)F)cn4)C3)cc2)s1` (stereo partly shown) [Example 1.4], the IC50 was determined as 101 nM. `COC1CCN(c2ncc(F)c(N3CC[C@@H](Oc4ccc([C@H](C)NC(C)=O)cc4)C3)n2)CC1` [Example 8.193] showed an IC50 of 229 nM. For `CC(=O)N[C@@H](C)c1ccc(O[C@@H]2CCN(c3ncnc(OC4CCOCC4)c3Cl)C2)cc1` [Example 7.64] the value was 128 nM; for `CC(=O)N[C@@H](C)c1ccc(O[C@@H]2CCN(c3ccnc(N(C)C4CCC4)n3)C2)cc1` [Example 8.253], 79 nM. Compound `CC(=O)N[C@@H](C)c1ccc(O[C@@H]2CCN(c3ncnc(N4CCC(C)C4)c3F)C2)cc1` (stereo partly shown) [Example 8.139] registered an IC50 of 49 nM.

Regarding `CC(=O)N[C@@H](C)c1ccc(O[C@@H]2CCN(c3ccnc(N4CCCC4)n3)C2)cc1` [Example 8.5], half-maximal inhibition (IC50) required 403 nM. For `CC(=O)N[C@@H](C)c1ccc(O[C@@H]2CCN(c3nc(N(C)CC4CCOC4)ncc3Cl)C2)cc1` (stereo partly shown) [Example 8.54] the value was 125 nM; for `COC1CCN(c2ncnc(N3CC[C@@H](Oc4ccc([C@H](C)NC(C)=O)cc4)C3)c2F)CC1` [Example 8.213], 360 nM; for `CC(=O)N[C@@H](C)c1ccc(O[C@@H]2CCN(c3nc(OCC4CC4(F)F)ncc3F)C2)cc1` (stereo partly shown) [Example 7.67], 789 nM. For `CC(=O)N[C@@H](C)c1ccc(O[C@@H]2CCN(c3ncc(OCC4CCC4)cn3)C2)cc1` [Example 6.1, N—((S)-1-(4-((R)-1-(5-(cyclobutylmethoxy)pyrimidin-2-yl)pyrrolidin-3-yloxy)phenyl)ethyl)acetamide], the IC50 stood at 110 nM. `CCCNc1ncc(Cl)c(N2CC[C@@H](Oc3ccc([C@H](C)NC(C)=O)cc3)C2)n1` [Example 8.55] gave an IC50 of 987 nM. For `Cc1oncc1C(=O)N[C@@H](C)c1ccc(OC2CCN(c3ncnc(OCC4CC4)c3F)C2)cc1` (stereo partly shown) [Example 2.22] the value was 48 nM. For `COCC(=O)Nc1nc(C)c(C(=O)N[C@@H](C)c2ccc(OC3CCN(c4ccnc(N(C)CC(F)F)n4)C3)cc2)s1` (stereo partly shown) [Example 2.11] the value was 115 nM; for `CC(=O)N[C@@H](C)c1ccc(O[C@@H]2CCN(c3ccnc(N(C)C4CCCOC4)n3)C2)cc1` (stereo partly shown) [Example 8.180], 278 nM; for `CC(=O)N[C@@H](C)c1ccc(O[C@@H]2CCN(c3nc(N(C)CC(F)F)ncc3F)C2)cc1` [Example 8.27], 65 nM.
